# From publication PMC7881127, “Cholesterol as a modulator of cannabinoid receptor CB2 signaling” (Scientific Reports, 2021)
# “Also recorded” adds a separate entry of the source.
# Tests used:
# [1] = test system: CB2 receptor; set-up: method as in PMID 30639103, PMID 18931146; conditions: previously reported; cited from earlier work
# [2] = biological target: T1, hCB2 (Homo sapiens, UniProt P34972); assay: [35S]GTPγS binding assay in hCB2-CHO-K1 cell membranes; format: biochemical; conditions: for Emax: read-out: GTPγS binding Emax; for Functional effect on G-protein signaling (pharmacological category) / Reduced basal signaling: hCB2-expressing CHO cell membranes (PerkinElmer)
# T1 construct: purchased PerkinElmer ES111-M400UA; host or cells: CHO-K1 cells stably transfected
# Procedure: Figure 2 Affinity and functional effects of novel MRI ligands on CB2 receptor in CHO cell membranes. (a) binding affinities (nM) and Emax (% and nM) of [^35S]-GTPγS binding to CHO membranes (PerkinElmer, Cat. No ES111-M400UA) expressing hCB2. (b) [^35S]-GTPγS binding to membranes as a factor of ligand concentration. Binding of [^35S]-GTPγS was determined as described in “Methods”. Non-specific binding was defined as 0% activity. The assay of GTPγS non-specific binding contains non-radioactive GTPγS.
# [^35S] GTPγS binding was assayed as described earlier[65] with slight modifications. Briefly, hCB2-CHO-K1 cell membranes (4 µg) were incubated with 0.05 nM [^35S] GTPγS, and the indicated concentrations of ligands in TEM buffer (50 mM Tris–HCl, 0.2 mM EGTA, and 9 mM MgCl2, pH 7.4) containing 100 µM GDP, 150 mM NaCl, and 0.1% (w/v) bovine serum albumin in a total volume of 1 ml for 60 min at 30 °C.
# [3] = biological target: T1, hCB2; assay: Radioligand ([3H]CP-55,940) displacement binding in hCB2-CHO-K1 cell membranes; conditions: hCB2-expressing CHO cell membranes (PerkinElmer), [3H]CP-55,940 displacement; read-out: CB2R binding hCB2R-Ki
# Procedure: The assay was performed as described previously. […] Plasma membranes were from cultured CHO-K1 cells stably transfected with human CB2R (Perkin Elmer). Two microgram plasma membrane protein was used in a 1 mL reaction mixture. Ki values were derived by computerized curve fitting and using the Cheng-Prusoff equation to account for the affinity of the radioligand, using the GraphPad Prism 8 program (GraphPad Prism Software Inc.).
# [4] = biological target: cannabinoid receptor CB2 (Homo sapiens, UniProt P34972); assay: [35S]GTP nucleotide exchange (GEF) G protein activation assay on CB2 in cell membrane preparations; format: biochemical; set-up: purchased PerkinElmer; Millipore ChemiScreen; Applied Cell Sciences; Signal Screen (Sf9); E. coli BL21 (DE3) and Expi293F membranes were made in house; ES111-M400UA; A318; 6110130; host or cells: CHO, CHO-K1, Sf9, Expi293F, Expi293F GNTI-, E. coli BL21 (DE3); conditions: for Pharmacological category in GEF assay: ligand 2 μM
# Description: To better understand the reason for these discrepancies, we assessed the activation of CB2 receptor by the in vitro G protein activation assay that measures the rates of nucleotide exchange on the Gα subunit of G protein (GEF assay) as described previously[33],[34]. The assay reports the rates of formation of the complex of [^35S]-GTPγS, a homolog of GTP, with the Gα subunit of G protein. Typical assay conditions require small (nanogram) quantities of the receptor protein either in cell membranes or reconstituted into lipid bilayers. The readout of the assay is the amount of the non-hydrolysable complex of Gα with [^35S]-GTPγS which, under selected experimental conditions, is proportional to the amount of activated receptor in the assay.
# Figure 3 GEF of CB2 expressed in: (a) E. coli membranes and (b) CHO membranes (Millipore EMD). 2 μg of total protein per assay. Each point represents an average of four independent measurements (n = 4). Ligands were added at a concentration of 2 μM to ensure saturation of the receptor, and G protein was added as described in “Methods”. The dotted line indicates the rates of activation of G protein in the absence of a ligand. The rates of activation with […] are set to 100%, and rates of activation in the presence of SR-144,528 to 0%.
# Figure 4 GEF on CB2 expressed in different cell lines. An amount of 2 μg of membrane protein per assay was used. Each data points represents an average of four independent measurements (n = 4) with error rates indicated by the bars. 100% represents full activation in the presence of 2 μM of CP-55,940, and 0%–with 2 μM SR-144,528.
# The subunits of G protein were expressed and purified as described previously. The nucleotide exchange assay was performed as previously described.
# [5] = test system: microglia; set-up: method as in PMID 16343349; conditions: cited from earlier work
# [6] = test system: natural killer cells; set-up: method as in PMID 15749836; conditions: cited from earlier work
# [7] = CB2 in CHO membranes (EMD Millipore)
# [8] = CB2 in E. coli BL21 (DE3) membranes (untreated)
# T1 sequence (P34972 whole entry): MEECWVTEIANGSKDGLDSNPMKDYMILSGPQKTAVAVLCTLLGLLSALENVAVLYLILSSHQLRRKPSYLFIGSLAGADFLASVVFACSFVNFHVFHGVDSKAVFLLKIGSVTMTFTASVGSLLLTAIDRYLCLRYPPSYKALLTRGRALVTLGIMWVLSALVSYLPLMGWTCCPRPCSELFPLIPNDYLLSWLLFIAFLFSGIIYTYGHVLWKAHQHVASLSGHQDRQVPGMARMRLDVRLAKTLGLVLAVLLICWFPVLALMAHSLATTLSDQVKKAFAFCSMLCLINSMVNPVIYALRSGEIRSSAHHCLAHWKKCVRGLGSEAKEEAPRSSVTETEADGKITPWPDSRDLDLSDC
# Sequence of cannabinoid receptor CB2 (P34972 whole entry): as above
molecule,measurement,setting,value
"COCCn1c(C)c(C)s/c1=N\C(=O)C1C(C)(C)C1(C)C [A-836339, 2,2,3,3-tetramethyl-cyclopropanecarboxylic acid [3-(2-methoxy-ethyl)-4,5-dimethyl-3H-thiazol-(2Z)-ylidene]-amide, reference compound]",Activity on the CB2 receptor (category),[1],agonist
"CCCCCCC(C)(C)c1ccc([C@@H]2C[C@H](O)CC[C@H]2CCCO)c(O)c1 [CP55,940, 2-[(1R,2R,5R)-5-Hydroxy-2-(3-hydroxypropyl)cyclohexyl]-5-(2-methyloctan-2-yl)phenol, reference compound]",Emax,[2],275 ± 4%
CC(=O)OCCn1c(C)c(C)s/c1=N\C(=O)C1C(C)(C)C1(C)C [MRI-2594],Ki,[3],0.031 nM
same,EC50,[2],0.09 nM
same,Functional effect on G-protein signaling (pharmacological category),[2],full agonism
same,Emax,[2],276 ± 4%
same,Pharmacological category in GEF assay,[4]; [7],(less-strong) agonist
same,Pharmacological category in GEF assay,[4]; [8],full agonist; also recorded: strong agonist
same,Activity on the CB2 receptor (category),[1],agonist
"COc1ccc2c(c1)sc(=NC(=O)C1C(C)(C)C1(C)C)n2CCOC(C)=O [MRI-2653, 2-(6-Methoxy-2-((2,2,3,3-tetramethylcyclopropane-1-carbonyl)imino)benzo[d]thiazol-3(2H)-yl)ethyl acetate]",Ki,[3],0.094 ± 0.011 nM
same,EC50,[2],0.5 ± 0.09 nM
same,Functional effect on G-protein signaling (pharmacological category),[2],inverse agonism
same,Reduced basal signaling,[2],55%
same,Emax,[2],-46 ± 2%
"CC(=O)OCCn1c(=NC(=O)C2C(C)(C)C2(C)C)sc2cc(Br)ccc21 [MRI-2654, 2-(6-Bromo-2-((2,2,3,3-tetramethylcyclopropane-1-carbonyl)imino)benzo[d]thiazol-3(2H)-yl)ethyl acetate]",Ki,[3],0.079 ± 0.009 nM
same,EC50,[2],0.76 ± 0.04 nM
same,Functional effect on G-protein signaling (pharmacological category),[2],inverse agonism; also recorded: inverse agonist
same,Reduced basal signaling,[2],55%
same,Emax,[2],-23 ± 3%
"CC(=O)OCCn1c(=NC(=O)C2C(C)(C)C2(C)C)sc2cc(OC(F)(F)F)ccc21 [MRI-2659, 2-(2-((2,2,3,3-tetramethylcyclopropane-1-carbonyl)imino)-6-(trifluoromethoxy)benzo[d]thiazol-3(2H)-yl)ethyl acetate]",Ki,[3],0.053 ± 0.01 nM
same,EC50,[2],0.25 ± 0.1 nM
same,Functional effect on G-protein signaling (pharmacological category),[2],inverse agonism
same,Reduced basal signaling,[2],55%
same,Emax,[2],-55 ± 1%
same,Pharmacological category in GEF assay,[4]; [7],strong inverse agonist
same,Pharmacological category in GEF assay,[4]; [8],strong inverse agonist
"CC(=O)OCCn1c(=NC(=O)C2C(C)(C)C2(C)C)sc2cc(C)ccc21 [MRI-2687, 2-(6-methyl-2-((2,2,3,3-tetramethylcyclopropane-1-carbonyl)imino)benzo[d]thiazol-3(2H)-yl)ethyl acetate]",Ki,[3],0.1 ± 0.01 nM
same,EC50,[2],1.23 ± 0.09 nM
same,Functional effect on G-protein signaling (pharmacological category),[2],inverse agonism
same,Reduced basal signaling,[2],55%
same,Emax,[2],-35 ± 1%
same,Activity on the CB2 receptor (category),[1],inverse agonist
"CCCCCc1cc(O)c2c(c1)OC(C)(C)[C@@H]1CCC(C)=C[C@@H]21 [THC, Δ^9-tetrahydrocannabinol]",CB2 activity in suppressing interferon-γ-induced activation of microglia,[5],full CB2 agonist
same,CB2 activity on 2-AG-induced migration of natural killer cells,[6],no CB2 agonist activity and acted as a CB2 antagonist
CC(C)CCC[C@@H](C)[C@H]1CC[C@H]2[C@@H]3CC=C4C[C@@H](O)CC[C@]4(C)[C@H]3CC[C@]12C [cholesterol],Effect on constitutive (basal) activity of the CB2 receptor,[4]; cell membrane preparations and liposomes,increases
"methyl-β-cyclodextrin [MβCD, reference compound]",Effect on rates of activation of G protein on CB2,[4]; Expi293F membranes treated with 20 mM MβCD,decreased by about twofold
